pIC50: −log10 of the molar value.
What was measured:
[1] = test system: up-regulation of ICAM-1 (CD54) by IFNγ in A549 lung epithelial cells; assay: A549 Epithelial Line Stimulated with IFNγ (ICAM-1 surface expression, FACS); type: cell-based, human; details: Homo sapiens, A549, A549 cells stimulated with IFNγ, ICAM-1 expression by FACS; read-out: IC50, Example 43
Text: The activity of the compounds of the invention may additionally be characterized by assaying the effect of the 2,4-substituted pyrimidinediamine compounds described herein on A549 lung epithelial cells and U937 cells. A549 lung epithelial cells and U937 cells up-regulate ICAM-1 (CD54) surface expression in response to a variety of different stimuli. Therefore, using ICAM-1 expression as readout, test compound effects on different signaling pathways can be assessed in the same cell type. Stimulation with IL-1β through the IL-1β receptor activates the TRAF6/NFκB pathway resulting in up-regulation of ICAM-1. IFNγ induces ICAM-1 up-regulation through activation of the JAK1/JAK2 pathway. The up-regulation of ICAM-1 can be quantified by flow cytometry across a compound dose curve and EC50, values are calculated. An exemplary assays of this type are described in greater detail in Examples 43 and 44
A549 lung epithelial cells up-regulate ICAM-1 (CD54) surface expression in response to a variety of different stimuli. Therefore, using ICAM-1 expression as readout, compound effects on different signaling pathways can be assessed in the same cell type. IFNγ up-regulates ICAM-1 through activation of the JAK/Stat pathway. In this example, the up-regulation of ICAM-1 by IFNγ was assessed.
The A549 lung epithelial carcinoma cell line originated from the American Type Culture Collection. Routine culturing was with F12K media (Mediatech Inc., Lenexa, KS, Cat. No. 10-025-CV) with 10% fetal bovine serum, 100 I.U. penicillin and […] streptomycin (complete F12k media). Cells were incubated in a humidified atmosphere of 5% CO2 at 37° C. Prior to use in the assay, A549 cells were washed with PBS and trypsinized (Mediatech Inc., Cat. No. 25-052-CI) to lift the cells. The trypsin cell suspension was neutralized with complete F12K media and centrifuged to pellet the cells. The cell pellet was resuspended in complete F12K media at a concentration of 2.0×10^5/mL. Cells were seeded at 20,000 per well, 100 μL total volume, in a flat bottom tissue culture plate and allowed to adhere overnight.
On day two, A549 cells were pre-incubated with a 2,4-substituted pyrimidinediamine test compound or DMSO (control) (Sigma-Aldrich, St. Louis, MO, Catalog No. D2650) for 1 hour. The cells were then stimulated with IFNγ (75 ng/mL) (Peprotech Inc., Rocky Hill, NJ, Cat. No. 300-02) and allowed to incubate for 24 hours. The final test compound dose range was 30 μM to 14 nM in 200 μL F12K media containing 5% FBS, 0.3% DMSO.
On day three, the cell media was removed and the cells were washed with 200 μL PBS (phosphate buffered saline). Each well was trypsinized to dissociate the cells, then neutralized by addition of 200 μL complete F12K media. Cells were pelleted and stained with an APC conjugated mouse anti-human ICAM-1 (CD54) (BD Pharmingen, San Diego, CA, Catalog #559771) antibody for 20 minutes at 4° C. Cells were washed with ice cold FACS buffer (PBS+2% FBS) and surface ICAM-1 expression was analyzed by flow cytometry. Detection was performed using a BD LSR I System Flow Cytometer, purchased from BD Biosciences of San Jose, California Events were gated for live scatter and the geometric mean was calculated (Becton-Dickinson CellQuest software version 3.3, Franklin Lakes, NJ). Geometric means were plotted against the compound concentration to generate a dose response curve.

Primary human T-cells = assay: Primary Human T-Cell Proliferation Assay Stimulated with IL-2 (CellTiter-Glo); type: cell-based; details: Homo sapiens, T-cell, primary human T-cells stimulated with IL-2, proliferation; read-out: IC50, Example 42
Summary of the method: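 IC50 derived from CellTiter-Glo ATP signal after 72 hours of IL-2-driven proliferation at 37° C. Cells: primary human T-cells from blood, stimulated beforehand 3-4 days on anti-CD3/anti-CD28 with IL-2, then rested from IL-2 before compound exposure in duplicate; IL-2-free wells served as unstimulated control.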

Compound | pIC50 [1] | pIC50 (Primary human T-cells)
CN1C(=O)CSc2ccc(Nc3nc(Nc4cccc(S(N)(=O)=O)c4)ncc3F)cc21 [VII-49, N2-(3-Aminosulfonylphenyl)-5-fluoro-N4-(4-methyl-3-oxo-benz[1,4]thiazin-6-yl)-2,4-pyrimidinediamine] | 5.51 | 7.26
Cc1ccc(Nc2ncc(F)c(Nc3ccc4c(c3)N(CC#N)C(=O)CO4)n2)cc1S(N)(=O)=O [Compound V-8, N2-(3-Aminosulphonyl-4-methylphenyl)-5-fluoro-N4-[3-oxo-4-cyanomethyl-benz[1,4]oxazin-6-yl]-2,4-pyrimidinediamine] | 5.28 | 6.65
Cc1ccc(Nc2ncc(F)c(Nc3ccc(CO)cc3)n2)cc1S(N)(=O)=O [VI-52, N2-(3-Aminosulfonyl-4-methylphenyl)-5-fluoro-N4-(4-hydroxymethylphenyl)-2,4-pyrimidinediamine] | 5.23 | 6.79
COc1ccc(Nc2nc(Nc3cc(Cl)c(C)c(S(N)(=O)=O)c3)ncc2F)cc1Cl [VI-13, N2-(3-Aminosulfonyl-5-chloro-4-methylphenyl)-N4-(3-chloro-4-methoxyphenyl)-5-fluoro-2,4-pyrimidinediamine] | 5.08 | 5.87
COc1ccc(Nc2nc(Nc3cccc(S(N)(=O)=O)c3)ncc2F)cn1 [VII-6, N2-(3-Aminosulfonylphenyl)-5-fluoro-N4-(2-methoxypyrid-5-yl)-2,4-pyrimidinediamine] | 4.63 | 5.70
Cc1ccc(Nc2ncc(F)c(Nc3ccc4[nH]cc(CC#N)c4c3)n2)cc1S(N)(=O)=O [IX-14, N2-(3-Aminosulfonyl-4-methylphenyl)-N4-(3-cyanomethyl-1H-indol-5-yl)-5-fluoro-2,4-pyrimidinediamine] | 5.47 | 6.18
C#CCNc1ccc(Nc2nc(Nc3ccc(C)c(S(N)(=O)=O)c3)ncc2F)cc1 [VI-65, N2-(3-Aminosulfonyl-4-methylphenyl)-5-fluoro-N4-[4-(prop-2-ynylamino)phenyl]-2,4-pyrimidinediamine] | 5.38 | 6.68
C#CCOc1ccc(Nc2nc(Nc3ccc(C)c(S(N)(=O)=O)c3)ncc2F)cc1 [VI-53, N2-(3-Aminosulfonyl-4-methylphenyl)-5-fluoro-N4-[4-(prop-2-ynyloxy)phenyl]-2,4-pyrimidinediamine] | 4.95 | 6.74
C#CCn1ccc2cc(Nc3nc(Nc4ccc(C)c(S(N)(=O)=O)c4)ncc3F)ccc21 [IX-1, N2-(3-Aminosulfonyl-4-methylphenyl)-5-fluoro-N4-[1-(propyn-3-yl)indol-5-yl]-2,4-pyrimidinediamine] | 5.31 | 6.24
COc1cc(Nc2nc(Nc3ccc(Cl)c(S(N)(=O)=O)c3)ncc2F)ccc1Cl [VI-11, N2-(3-Aminosulfonyl-4-chlorophenyl)-N4-(4-chloro-3-methoxyphenyl)-5-fluoro-2,4-pyrimidinediamine] | 4.33 | 5.34
C#CCOc1ccc(Nc2nc(Nc3ccc(C)c(S(N)(=O)=O)c3)ncc2F)cc1F [VI-60, N2-(3-Aminosulfonyl-4-methylphenyl)-5-fluoro-N4-[3-fluoro-4-(prop-2-ynyloxy)phenyl]-2,4-pyrimidinediamine] | 5.42 | 6.73
Cc1ccc(Nc2ncc(C)c(Nc3ccc4c(c3)NC(=O)CO4)n2)cc1S(N)(=O)=O [VII-30, N2-(3-Aminosulphonyl-4-methylphenyl)-5-methyl-N4-(3-oxo-benz[1,4]oxazin-6-yl)-2,4-pyrimidinediamine] | 5.05 | 7.57
N#CCN1C(=O)CSc2ccc(Nc3nc(Nc4cccc(S(N)(=O)=O)c4)ncc3F)cc21 [Compound V-12, N2-(3-Aminosulphonylphenyl)-5-fluoro-N4-(3-oxo-4-cyanomethyl-benzo[1,4]thiazin-6-yl)-2,4-pyrimidinediamine] | 4.27 | 6.02
C=Cc1ccc(Nc2nc(Nc3ccc(C)c(S(N)(=O)=O)c3)ncc2F)cc1 [VI-54, N2-(3-Aminosulfonyl-4-methylphenyl)-5-fluoro-N4-(4-vinylphenyl)-2,4-pyrimidinediamine] | 4.51 | 6.01
Cc1ccc(Nc2ncc(F)c(Nc3ccc4c(c3)NC(=O)CS4)n2)cc1S(N)(=O)=O [VII-44, N2-(3-Aminosulphonyl-4-methyl-phenyl)-5-fluoro-N4-(3-oxo-4H-benzo[1,4]thiazin-6-yl)-2,4-pyrimidinediamine] | 5.04 | 6.26
NS(=O)(=O)c1cccc(Nc2ncc(F)c(Nc3ccc(CCCCF)cc3)n2)c1 [VI-92, N2-(3-Aminosulfonylphenyl)-5-fluoro-N4-[4-(4-fluorobutyl)phenyl]-2,4-pyrimidinediamine] | 4.89 | 6.97
NS(=O)(=O)c1cccc(Nc2ncc(F)c(Nc3ccc(CCCCO)cc3)n2)c1 [VI-89, N2-(3-Aminosulfonylphenyl)-5-fluoro-N4-[4-(4-hydroxybutyl)phenyl]-2,4-pyrimidinediamine] | 5.24 | 6.77
CC#CCOc1ccc(Nc2nc(Nc3ccc(C)c(S(N)(=O)=O)c3)ncc2F)cc1 [VI-61, N2-(3-Aminosulfonyl-4-methylphenyl)-N4-[4-(but-2-ynyloxy)phenyl]-5-fluoro-2,4-pyrimidinediamine] | 5.51 | 6.73
COc1ccc(Nc2nc(Nc3ccc(C(C)C)c(S(N)(=O)=O)c3)ncc2F)cc1Cl [VI-45, N2-(3-Aminosulfonyl-4-iso-propylphenyl)-N4-(3-chloro-4-methoxy-phenyl)-5-fluoro-2,4-pyrimidinediamine] | 4.98 | 5.88
Cc1ccc(Nc2ncc(F)c(Nc3ccc4sccc4c3)n2)cc1S(N)(=O)=O [VII-57, N2-(3-Aminosulfonyl-4-methylphenyl)-N4-(benzothiophen-5-yl)-5-fluoro-2,4-pyrimidinediamine] | 4.97 | 6.09
NS(=O)(=O)c1ccc(Nc2ncc(F)c(Nc3ccc(CCCO)cc3)n2)cc1 [VI-85, N2-(4-Aminosulfonylphenyl)-5-fluoro-N4-[4-(3-hydroxypropyl)phenyl]-2,4-pyrimidinediamine] | 4.61 | 6.12
Cc1ccc(Nc2ncc(F)c(Nc3ccc(Cl)c(Cl)c3)n2)cc1S(N)(=O)=O [VI-6, N2-(3-Aminosulfonyl-4-methylphenyl)-N4-(3,4-dichlorophenyl)-5-fluoro-2,4-pyrimidinediamine] | 4.82 | 5.84
Cc1ccc(Nc2ncc(F)c(Nc3ccc(CCCF)cc3)n2)cc1S(N)(=O)=O [VI-84, N2-(3-Aminosulfonyl-4-methylphenyl)-5-fluoro-N4-[4-(3-fluoropropyl)phenyl]-2,4-pyrimidinediamine] | 5.34 | 6.29
C#CCOc1ccc(Nc2nc(Nc3ccc(C)c(S(=O)(=O)NC)c3)ncc2F)cc1 [VI-68, 5-Fluoro-N2-(4-methyl-3-methylaminosulfonylphenyl)-N4-[4-(prop-2-ynyloxy)phenyl]-2,4-pyrimidinediamine] | 4.57 | 6.13
COc1c(C)cc(Nc2ncc(F)c(Nc3ccc(C(C)(C)C)cc3)n2)cc1S(N)(=O)=O [VI-37, N2-(3-Aminosulfonyl-4-methoxy-5-methylphenyl)-N4-(4-tert-butylphenyl)-5-fluoro-2,4-pyrimidinediamine] | 4.91 | 5.97
NS(=O)(=O)c1cccc(Nc2ncc(F)c(Nc3ccc(-c4cnco4)cc3)n2)c1 [IV-5, N2-(3-Aminosulfonylphenyl)-5-fluoro-N4-[4-(1,3-oxazol-5-yl)phenyl]-2,4-pyrimidinediamine] | 4.79 | 6.94

— US11827628B2, “Compositions and methods for inhibition of the JAK pathway” (Rigel Pharmaceuticals, Inc., priority 2005, dated 2023)
